Data: patent US20080044484A1, “Use of polymeric nanoparticles for vaccine delivery” (THE REGENTS OF THE UNIVERSITY OF CALIFORNIA, priority 2004, published 2008)

Tests used:
T2 cells [1] = assay: IFNγ release by CTL (ELISA) after incubation with peptide-loaded T2 cells; format: cell-based, human; settings: CTL elicited with the corresponding HER2/neu peptide, 20 h, 10^5 CTL/well
Protocol: In interferon gamma-release assays, 10^5 HER2/neu-specific CTL were co-incubated with 10^5 peptide-loaded T2 cells for 20 hours at 37° C. The concentrations of human interferon gamma in co-cultured supernatants were then determined by ELISA.

T2 cells [2] = assay: 51Cr-release assay using T2 cells pulsed with HER2/neu-derived peptides as targets for CTL; settings: T2 pulsed with the peptide; percentage of specific lysis
Protocol: To probe class I presentation of cells loaded with the fusion peptides and their counterpart minimal peptides CTL recognizing the HER2/neu-derived peptides were generated. In vitro peripheral blood mononuclear cells (PBMCs) were immunized from healthy donors with these peptides in the presence of interleukin 2 and interleukin 7 using the following technique:
The next day, 12 units/ml IL-2 (Chiron) and 30 units/ml IL-7 (R & D Systems) were added to the cultures. Lymphocytes were re-stimulated weekly with peptide-pulsed autologous adherent cells as follows: First, autologous PBMC were incubated with HER2/neu peptide (10 μg/ml) for 3 h at 37° C. Nonadherent cells were then removed by a gentle wash and the adherent cells were incubated with fresh medium containing the HER2/neu peptide (10 μg/ml) for an additional 3 h at 37° C.
The induction of CTL in human PBMC was monitored in a conventional ^51Cr-labeling release assay. Briefly, peptide-pulsed TAP^−/HLA-A2.1^+ human T2 cells were incubated with 10 μg of HER2/neu peptides or the MART-1 control peptide for 90 min during labeling with ^51Cr. After washing, the target cells were added to serially diluted effectors in 96-well microplates. After a 6-h incubation at 37° C., supernatants were harvested and counted in a gamma counter. Results are expressed as the percentage of specific lysis and determined as follows: [(experimental cpm−spontaneous cpm)/(maximum cpm−spontaneous cpm)]×100.

[3] = test system: breast cancer cells MDA-MB-231; assay: IFNγ release by CTL (ELISA) after incubation with peptide-loaded MDA-MB-231 cells; format: cell-based, human; settings: CTL elicited with the corresponding HER2/neu peptide, 20 h, 10^5 CTL/well
Protocol: In interferon gamma release assays, 10^5 HER2/neu-specific CTL were co-incubated with 10^5 peptide-loaded tumor cells for 20 hours at 37° C. The concentration of human interferon gamma in co-cultured supernatants was then determined by ELISA.

[4] = test system: ICP47-transfected cells MCF7; assay: Functional blockade of TAP by ICP47, 51Cr-release from peptide-loaded cells; format: cell-based, human; settings: CTL reactive against the corresponding HER2/neu peptide, 3 days after peptide loading, 6-hour assay
Excerpt: Another aspect in these studies was to determine the mechanisms of enhancement of the antigen presentation by the fusion peptides in human tumor cell lines. Therefore, a new test system was developed utilizing the Herpes Simplex virus (HSV) protein ICP47. ICP47 is a cytoplasmic protein, which interferes with antigen presentation by physically associating with TAP within the cell and inhibiting peptide transport across the ER-membrane. By transfecting the ICP47 gene into several cancer cell lines a novel system for screening different fusion peptides for TAP-independent translocation of peptide antigens through the ER-membrane was generated.
The expression of these antigens was detected by ^51Cr-release assays.

Substance	Release of IFNγ by CTL, T2 cells loaded with the peptide (T2 cells [1]; Day 1 after peptide loading) [pg/mL]	Release of IFNγ by CTL, T2 cells loaded with the peptide (T2 cells [1]; Day 3 after peptide loading) [pg/mL]	Release of IFNγ by CTL, T2 cells loaded with the peptide (T2 cells [1]; Day 5 after peptide loading) [pg/mL]	Release of IFNγ by CTL, T2 cells loaded with the peptide (T2 cells [1]; Day 8 after peptide loading) [pg/mL]	51Cr-release, E:T ratio 1.5:1 (T2 cells [2]) [%]	51Cr-release, E:T ratio 3.1 (T2 cells [2]) [%]	51Cr-release, E:T ratio 6:1 (T2 cells [2]) [%]	51Cr-release, E:T ratio 12:1 (T2 cells [2]) [%]	51Cr-release, E:T ratio 25:1 (T2 cells [2]) [%]	51Cr-release, E:T ratio 50:1 (T2 cells [2]) [%]	Release of IFNγ by CTL, MDA-MB-231 cells loaded with the peptide ([3]; Day 1 after peptide loading) [pg/mL]	Release of IFNγ by CTL, MDA-MB-231 cells loaded with the peptide ([3]; Day 3 after peptide loading) [pg/mL]	Release of IFNγ by CTL, MDA-MB-231 cells loaded with the peptide ([3]; Day 5 after peptide loading) [pg/mL]	Release of IFNγ by CTL, MDA-MB-231 cells loaded with the peptide ([3]; Day 8 after peptide loading) [pg/mL]	Percent 51Cr Released From ICP47-transfected MCF7 cells loaded with the construct ([4]; E:T 20:1) [%]	Percent 51Cr Released From ICP47-transfected MCF7 cells loaded with the construct ([4]; E:T 40:1) [%]
CLTSTVQLV (listed as Homo sapiens) [HER2/neu789-797]	2924	317	116	91	9	22	31	52	62	83						
CLTSTVQLV MRYMILGLLALAAVCSA (CLTSTVQLVMRYMILGLLALAAVCSA) [HER789-797-ES]	58	78	69	98												
CLTSTVQLV MTNKCLLQIALLLCFSTTA (CLTSTVQLVMTNKCLLQIALLLCFSTTA) [HER789-797-IS]	69	78	87	59												
HLYQGCQVV (listed as Homo sapiens) [HER2/neu48-56]	2280	488	134	177	8	19	33	41	53	88						
HLYQGCQVV MRYMILGLLALAAVCSA (HLYQGCQVVMRYMILGLLALAAVCSA) [HER48-56-ES]	418	218	99	101												
HLYQGCQVV MTNKCLLQIALLLCFSTTALS (HLYQGCQVVMTNKCLLQIALLLCFSTTALS) [HER48-56-IS]	288	148	155	121												
IISAVVGIL (listed as Homo sapiens) [HER2/neu654-662, reference compound]	2827	429	121	167	13	26	38	59	71	91	2826	438	131	147		
IISAVVGIL MRYMILGLLALAAVCSA (IISAVVGILMRYMILGLLALAAVCSA) [HER654-662-ES]	144	124	137	83							188	138	135	93		
IISAVVGIL MTNKCLLQIALLLCFSTTALS (IISAVVGILMTNKCLLQIALLLCFSTTALS) [HER654-662-IS]	111	99	121	76							144	102	132	86		
M A CLTSTVQLV A A A A A G (MACLTSTVQLVAAAAAG) [HER789-797-IN-AF]	296	327	178	117												
M R CLTSTVQLV A A V C S A (MRCLTSTVQLVAAVCSA) [HER789-797-IN-ES]	246	312	121	107												
M R IISAVVGIL A A V C S A (MRIISAVVGILAAVCSA) [HER654-662-IN-ES]	2929	2773	1699	671							2727	2666	1708	667	2	2
MR HLYQGCQVV AAVCSA (MRHLYQGCQVVAAVCSA) [HER48-56-IN-ES]	3368	1349	988	228												
MRYMILGLLALAAVCSA CLTSTVQLV (MRYMILGLLALAAVCSACLTSTVQLV) [ES-HER789-797]	1824	526	168	110												
MRYMILGLLALAAVCSA HLYQGCQVV (MRYMILGLLALAAVCSAHLYQGCQVV) [ES-HER48-56]	2894	1876	953	589												
MRYMILGLLALAAVCSA IISAVVGIL (MRYMILGLLALAAVCSAIISAVVGIL) [ES-HER654-662]	2667	2518	1245	581							2767	2622	1445	578	2	3
MTNKCLLQIALLLCFSTTALS CLTSTVQLV (MTNKCLLQIALLLCFSTTALSCLTSTVQLV) [IS-HER789-797]	1717	315	125	104												
MTNKCLLQIALLLCFSTTALS HLYQGCQVV (MTNKCLLQIALLLCFSTTALSHLYQGCQVV) [IS-HER48-56]	3268	1264	943	614												
MTNKCLLQIALLLCFSTTALS IISAVVGIL (MTNKCLLQIALLLCFSTTALSIISAVVGIL) [IS-HER654-662]	2590	1990	1557	615							2678	1974	1604	628	3	5
